Assay results published in patent US20080227855A1, “Solid Dispersion of Hydrophobic Bioactive” (priority 2005, published 2008).
One block for each molecule: values may come before it.

Tests used:
[1] = XRPD analysis of crystallinity (amorphous stability) of spray dried dispersions on storage; format: physicochemical; conditions: stored at room temperature under vacuum (FIG. 8)
Procedure: All dispersions were spray dried using a Niro SD spray dryer connected to a nitrogen generator.
Solutions for dispersions were prepared by dissolving griseofulvin, a major excipient (PVP) and a minor excipient in an acetone water co-solvent system. To ensure homogeneity, the dispersions were allowed to mix for eight hours before the dispersion was spray dried using a Niro SD system under nitrogen conditions with an inlet temperature of 65° C. and an outlet temperature of 45° C. The feed rate was around 15% of maximum and the nitrogen flow rates were 20 kg/hr and 2 kg/hr for the drying and atomization rates respectively.
The samples were then stored under constant vacuum for 24 hours to allow for the removal of solvent before being transferred to the required conditions.
A Philips PW37010 X-ray Powder Diffractometer (Philips, Cambridge, UK) was used to analyse the samples for crystallization, with a sample XRPD scans shown in FIGS. 1a and 1b.
This was compressed to produce a flat surface before being loaded into the XRPD. […]
Pure crystalline griseofulvin or flavanone was subjected to the same methodology to produce a standard XRPD scan. A number of peaks were selected from each of these standards to produce a 100% crystalline value expressed as X-ray count/°2Θ these were then compared with the area under the peaks of the dispersions to produce percentage crystallinity values.

[2] = indomethacin with PVP, hydrogen bonding; cited from earlier work
[3] = Dissolution, USP paddle method; format: physicochemical; conditions: pH6.8 buffer at 37 C, 100 rpm (FIG. 11)
Procedure: Dispersions were prepared as described above containing Gris:PVP 1:1; Gris:PHPMA:PVP 2.5:1.25:1.25, and compared to Gris spray dried without polymer and crystalline Gris. Dissolution data were prepared by placing a small amount of sample in a hard gelatine capsule and following dissolution in pH6.8 buffer at 37 C (with added surfactant if dispersion was required), using a USP paddle method.

[4] = griseofulvin dispersed in PVP (high Tg polymer); cited from earlier work

crystallinity by XRPD ([1]; Flavanone dispersed with PVP): near completely crystalline
crystallinity by XRPD ([1]; Flavanone dispersed with a combination of PHPMA and PVP): only partial crystallinity
SMILES: O=C1CC(c2ccccc2)Oc2ccccc21 (centres unmarked) [Flavanone]

SMILES: COc1ccc2c(c1)c(CC(=O)O)c(C)n2C(=O)c1ccc(Cl)cc1 [Indomethacin]
amorphous stability [2]: above that expected on the basis of glass transition temperature alone

dissolution [3]: slow dissolution
SMILES: COC1=CC(=O)C[C@@H](C)[C@]12Oc1c(Cl)c(OC)cc(OC)c1C2=O [griseofulvin, Griseofulvin]
crystallisation of drug dispersed in polymer [4]: relatively rapid crystallisation
